Assay results reported in ChEMBL document CHEMBL4808216, “Gut-Restricted Selective Cyclooxygenase-2 (COX-2) Inhibitors for Chemoprevention of Colorectal Cancer” (J Med Chem, 2021).

Legend:
[1] = Oral bioavailability in Sprague Dawley rat at 10 mg/kg measured up to 24 hrs by LC-MS analysis; type: ADME, organism-based; settings: in vivo
[2] = Oral bioavailability in Cynomolgus monkey at 10 mg/kg measured up to 24 hrs by LC-MS analysis; type: ADME, organism-based, Macaca fascicularis; settings: in vivo
[3] = Clearance in C57BL/6J mouse at 2 mg/kg, iv measured after 0.08 to 24 hrs; type: ADME, organism-based; settings: in vivo, time 0.08-24 hrs
[4] = target: T1, Prostaglandin G/H synthase 1 (Homo sapiens, UniProt P23219); experiment: Inhibition of COX1 in human whole blood assessed as reduction in calcium ionophore-stimulated TXB2 production incubated for 1 hr by ELISA; type: tissue-based
Mus musculus [5] = experiment: Antitumor activity in C57BL/6J mouse model of spontaneous GI-tract tumor Apc-min assessed as mouse survival at 30 mg/kg, po administered daily as suspension and measured at day 82 by Kaplan-Meier method; type: functional
[6] = target: T1, Prostaglandin G/H synthase 1; experiment: Inhibition of human recombinant COX-1 assessed as reduction in peroxidase activity using arachidonic acid as substrate preincubated for 60 mins followed by substrate addition for 2 secs by ADPH based fluorometric analysis; type: ADME
[7] = target: T2, Prostaglandin G/H synthase 2 (Homo sapiens, UniProt P35354); experiment: Inhibition of human recombinant COX-2 using arachidonic acid as substrate preincubated for 60 mins followed by substrate addition for 2 secs by ADPH based fluorometric analysis
T2 sequence (P35354 whole entry): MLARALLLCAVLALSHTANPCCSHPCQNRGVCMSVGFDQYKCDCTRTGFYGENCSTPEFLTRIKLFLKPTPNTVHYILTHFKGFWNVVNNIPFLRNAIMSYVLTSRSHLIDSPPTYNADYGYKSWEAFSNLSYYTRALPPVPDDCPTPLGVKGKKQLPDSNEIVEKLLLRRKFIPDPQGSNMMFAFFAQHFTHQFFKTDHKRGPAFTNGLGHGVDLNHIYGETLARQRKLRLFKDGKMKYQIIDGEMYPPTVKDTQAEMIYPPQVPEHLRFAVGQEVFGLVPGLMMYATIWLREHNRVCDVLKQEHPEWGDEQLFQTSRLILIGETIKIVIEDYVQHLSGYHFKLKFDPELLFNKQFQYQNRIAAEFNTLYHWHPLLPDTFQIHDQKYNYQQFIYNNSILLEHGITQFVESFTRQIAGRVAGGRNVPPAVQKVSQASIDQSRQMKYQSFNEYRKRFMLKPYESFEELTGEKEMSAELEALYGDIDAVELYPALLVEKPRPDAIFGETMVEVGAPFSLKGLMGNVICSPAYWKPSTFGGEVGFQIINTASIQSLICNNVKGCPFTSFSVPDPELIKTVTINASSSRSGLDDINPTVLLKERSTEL

[8] = Tmax in C57BL/6J mouse at 10 mg/kg, po administered as cassette dose measured at 4 hrs by liquid chromatographic triple-quadrupole mass spectrometric method; type: ADME, organism-based; settings: in vivo
[9] = Drug concentration in C57BL/6J mouse colon at 10 mg/kg, po administered as cassette dose measured at 4 hrs by LC/MS/MS analysis; type: ADME, organism-based; settings: read-out: Ct
Homo sapiens = species on record: Homo sapiens; experiment: Selectivity ratio of IC50 for COX1 in human whole blood assessed as reduction in calcium ionophore-stimulated TXB2 production to IC50 for COX2 in human whole blood assessed as reduction in LPS stimulated PGE2 production; type: tissue-based
[10] = Half life in human hepatocytes; type: ADME, cell-based, Hepatocyte
[11] = Drug concentration in C57BL/6J mouse plasma at 10 mg/kg, po administered as cassette dose measured at 4 hrs by LC/MS/MS analysis; type: ADME, organism-based
Mus musculus [12] = experiment: Antitumor activity in po dosed C57BL/6J mouse model of spontaneous GI-tract tumor Apc-min assessed as reduction in total ileum polyp area administered as suspension for 10 to 12 weeks; type: functional, organism-based; settings: time 10-12 weeks
[13] = Protein binding in human colon assessed as unbound fraction; type: ADME, tissue-based
[14] = target: T2, Prostaglandin G/H synthase 2; experiment: Inhibition of COX2 (unknown origin) expressed in HEK293 TRex cells assessed as reduction in PGE2 production using arachidonic acid as substrate preincubated for 60 mins followed by substrate addition for 1 hr in presence of 10% FBS by RapidFire High-Throughput Mass Spectrometry; type: cell-based, HEK293-T-REx
[15] = target: T3, Prostaglandin G/H synthase 2 (Mus musculus, UniProt Q05769); experiment: In vivo inhibition of COX2 in po dosed C57BL/6J mouse model of spontaneous GI-tract tumor Apc-min assessed as chemopreventive effect by measuring reduction in polyp area and relevant ileum exposures; type: functional, organism-based
T3 sequence (Q05769 whole entry): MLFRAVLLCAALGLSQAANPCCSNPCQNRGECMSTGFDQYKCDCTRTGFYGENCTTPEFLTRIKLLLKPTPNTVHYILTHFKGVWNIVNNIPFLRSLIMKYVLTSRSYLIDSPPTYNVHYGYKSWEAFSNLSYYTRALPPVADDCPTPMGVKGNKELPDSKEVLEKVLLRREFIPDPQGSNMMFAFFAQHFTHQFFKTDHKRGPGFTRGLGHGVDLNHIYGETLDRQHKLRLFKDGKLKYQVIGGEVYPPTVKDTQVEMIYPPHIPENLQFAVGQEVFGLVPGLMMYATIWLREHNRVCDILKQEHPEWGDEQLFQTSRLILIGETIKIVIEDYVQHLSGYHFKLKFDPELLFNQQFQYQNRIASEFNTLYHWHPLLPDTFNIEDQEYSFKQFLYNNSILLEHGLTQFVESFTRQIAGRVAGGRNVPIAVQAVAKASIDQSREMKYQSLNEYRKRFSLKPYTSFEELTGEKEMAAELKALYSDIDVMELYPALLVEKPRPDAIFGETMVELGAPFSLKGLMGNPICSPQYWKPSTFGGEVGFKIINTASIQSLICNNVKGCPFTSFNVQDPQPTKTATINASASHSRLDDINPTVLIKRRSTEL

[16] = target: T4, Prostaglandin G/H synthase 2 (Homo sapiens) (UniProt P35354)
T4 sequence (whole entry): T2 sequence (P35354 whole entry)
Description: Protein occupancy at human recombinant COX-2 assessed as dissociation half life

[17] = target: T2, Prostaglandin G/H synthase 2; experiment: Inhibition of COX2 in human whole blood assessed as reduction in LPS stimulated PGE2 production incubated for 1 hr by ELISA; type: tissue-based
in vivo = settings: C57BL/6J, mouse, colon / portal vein plasma, po, 10 mg/kg
Description: Ratio of drug concentration in C57BL/6J mouse colon to portal vein plasma at 10 mg/kg, po measured after 4 hr by liquid chromatographic triple-quadrupole mass spectrometric method

[18] = Oral bioavailability in dog at 10 mg/kg measured up to 24 hrs by LC-MS analysis; type: ADME, organism-based, Canis lupus familiaris; settings: in vivo
[19] = Oral bioavailability in C57BL/6J mouse at 10 mg/kg measured up to 24 hrs by LC-MS analysis; type: ADME, organism-based; settings: in vivo
Mus musculus [20] = experiment: Antitumor activity in C57BL/6J mouse model of spontaneous GI-tract tumor Apc-min assessed as reduction in total ileum polyp area at 300 mg/kg, po administered as suspension for 10 to 12 weeks; type: functional; settings: time 10-12 weeks, read-out: TGI
[21] = Drug concentration in C57BL/6J mouse portal vein plasma at 10 mg/kg, po administered as cassette dose measured at 4 hrs by LC/MS/MS analysis; type: ADME, organism-based
[22] = target: T2, Prostaglandin G/H synthase 2; experiment: Inhibition of human recombinant COX-2 assessed as reduction in peroxidase activity using arachidonic acid as substrate preincubated for 60 mins followed by substrate addition for 2 secs by ADPH based fluorometric analysis
[23] = Half life in human liver microsomes; type: ADME, Microsome

T1 sequence (P23219 whole entry): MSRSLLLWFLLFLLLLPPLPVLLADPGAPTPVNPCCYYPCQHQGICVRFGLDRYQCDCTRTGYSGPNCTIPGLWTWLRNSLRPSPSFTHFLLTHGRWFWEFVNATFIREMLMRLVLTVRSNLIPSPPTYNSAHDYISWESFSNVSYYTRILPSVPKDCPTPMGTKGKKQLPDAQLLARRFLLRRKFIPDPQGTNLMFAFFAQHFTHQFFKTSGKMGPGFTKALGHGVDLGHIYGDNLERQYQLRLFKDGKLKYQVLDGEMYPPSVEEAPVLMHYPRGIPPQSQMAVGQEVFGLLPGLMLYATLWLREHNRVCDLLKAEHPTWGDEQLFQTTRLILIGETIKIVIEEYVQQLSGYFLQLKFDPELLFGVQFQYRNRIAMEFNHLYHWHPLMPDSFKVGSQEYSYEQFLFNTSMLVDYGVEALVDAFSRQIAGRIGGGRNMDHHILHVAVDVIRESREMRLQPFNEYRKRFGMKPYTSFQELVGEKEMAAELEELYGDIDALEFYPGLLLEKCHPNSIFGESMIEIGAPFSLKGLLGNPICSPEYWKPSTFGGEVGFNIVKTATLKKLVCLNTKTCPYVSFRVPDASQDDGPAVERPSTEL

`CCCOc1nc(OCC(C)(C)O)c(-c2ccc(S(C)(=O)=O)cc2)cc1CO` showed a bioavailability [1] of 2.3%, a bioavailability [2] of 20% and a clearance [3] of 92.7 mL/min/kg. For the same compound, the IC50 [4] was 193000 nM, the Survival (Mus musculus [5]) was >82 days and the IC50 [6] was > 50000 nM. For the same compound, the Ki [7] was 114 nM, the Tmax [8] was 15 min and the concentration at 4 h [9] was 5340 ng/g. The Ratio IC50 (Homo sapiens) was 80, the half-life [10] was 3.1 min and the concentration at 4 h [11] was 5.7 ng/mL. The Activity (Mus musculus [12]) was “Dose-Dependent Effect”, the fraction unbound [13] was 0.066 and the IC50 [14] was 600 nM. The IC50 [15] was 2380 nM, the T1/2 [16] was 534 min and the IC50 [17] was 2340 nM. For the same compound, the Kp at 4 h (in vivo) was 38, the bioavailability [18] was 79.5% and the bioavailability [19] was 4.25%. The inhibition in vivo at 300 mg/kg (Mus musculus [20]) was 41.9%, the concentration at 4 h [21] was 98.6 ng/mL and the IC50 [22] was 840 nM. The half-life [23] was > 184 min.
